Experimental data published in US20110150917A1, “Small Cationic Antimicrobial Peptides” (THE UNIVERSITY OF BRITISH COLUMBIA, priority 2007, published 2011).
Entries after “also recorded” stand apart in the source; their conditions may differ. Where no end group is shown, it is not given here.

Tests used:
monocytic cells = conditions: cited from earlier work
bacterial infections = conditions: mouse, in vivo; cited from earlier work
[1] = mouse model; cited from earlier work
[2] = system: human peripheral blood mononuclear cells (PBMC); assay: Chemokine induction in human PBMC (capture ELISA); assay type: cell-based; conditions: for ability to stimulate human PBMC to induce the expression of the chemokines MCP-1, Gro-α and IL8: ELISA 24 hours after peptide addition, compared to LL-37, lowest peptide concentration 5 μg/ml
Experimental: (§1) Venous blood (20 ml) from healthy volunteers was collected in Vacutainer® collection tubes containing sodium heparin as an anticoagulant (Becton Dickinson, Mississauga, ON) in accordance with UBC ethical approval and guidelines. Blood was diluted 1:1 with complete RPMI 1640 medium and separated by centrifugation over a Ficoll-Paque® Plus (Amersham Biosciences, Piscataway, N.J., USA) density gradient. White blood cells were isolated from the buffy coat, washed twice in RPMI 1640 complete medium, and the number of peripheral blood mononuclear cells (PBMC) was determined by trypan blue exclusion. PBMC (5×10^5) were seeded into 12-well tissue culture dishes (Falcon; Becton Dickinson) at 0.75 to 1×10^6 cells/ml at 37° C. in 5% CO2. The above conditions were chosen to mimic conditions for circulating blood monocytes entering tissues at the site of infection via extravasation.
(§2) Following incubation of the cells under various treatment regimens, the tissue culture supernatants were centrifuged at 1000×g for 5 min, then at 10,000×g for 2 min to obtain cell-free samples. Supernatants were aliquoted and then stored at −20° C. prior to assay for various chemokines by capture ELISA (eBioscience and BioSource International Inc., CA, USA respectively).

human PBMC = assay: Chemokine responses of human PBMC to CpG oligonucleotides with co-administered lantibiotic peptides; assay type: cell-based; conditions: for synergy with known adjuvants like CpG: FIG. 3, FIG. 8
Experimental: FIG. 3A-C. Reinforcement of chemokine responses in human PBMC to the bacterial signature molecules, Cpg oligonucleotides, by co-administration of lantibiotic peptides. On the X-axis of this and subsequent Figures, N=Nisin Z, P=Pep5, G=gallidermin.
as §1, §2

macrophages = conditions: previously shown in applicant's laboratory; cited from earlier work
Citrobacter rodentium = Citrobacter rodentium challenge in mice (live imaging, intestinal histology); assay type: in vivo
Experimental: FIG. 10. Live-time Non-invasive imaging following Citrobacter rodentium challenge; effect of nisin treatment. Animals were pre-treated intraperitoneally with 200 μg nisin, 4 h prior to initiating the infection. Mice were then infected via gavage with 2.5×10^8 CFU of Citrobacter rodentium (lux—luminescence labeled). Live mice were followed with a CCD camera over time to assess bacterial clearance/resolution of infection.
FIG. 11. Histology of the intestines of Citrobacter treated animals after sacrifice at day 11; effect of nisin treatment. A. Sections of (from right to left): normal uninfected, saline treated infected, and nisin-treated intestines. Letter labels are a. Inflammatory infiltrate and edema; b. elongated crypts (hyperplasia); c. sloughing of damaged epithelial cells (mucosal integrity); d. depletion of mucous in goblet cells. B. Scoring of these micrographs.

S. aureus = assay: Protection of mice vs. Staphylococcus aureus challenge (peritoneal); assay type: in vivo
Experimental: FIG. 9. Protection of animals vs. Staphylococcus aureus challenge when administered 4 hours prior to initiating the infection. A represents the reduction in colony counts within the peritoneum of mice treated with lantibiotic peptide (or negative control 1005 or positive control 1002) and challenged with ˜10^8 S. aureus in hog gastric mucin. […] An additional peptide 1002 was included as a positive control.
Conventional peptides are known to protect against infection (Scott et al. Nature Biotech 2007). However such peptides are very expensive whereas lantibiotics are bacterial fermentation products and thus inexpensive. Thus we assessed the reduction in colony counts after 24 hours within the peritoneum of mice treated with the lantibiotic peptide nisin (or negative control 1005 or positive control 1002) and challenged these mice 4 hours later with ˜10^8 S. aureus in hog gastric mucin. […] Thus the in vitro activities of nisin in increasing MCP-1 production in PBMC is clearly related to in vivo protection in animal models.

[3] = intestines, sacrifice at day 11, p<0.05, FIG. 11

LL-37: natural human host defence peptide (LLGDFFRKSKEKIGKEFKRIVQRIKDFLRNLVPRTES; Antibacterial peptide LL-37; UniProt P49913 134-170, looked up)
anti-endotoxic activity in vitro (suppression of LPS-mediated induction of TNFα) (monocytic cells): excellent anti-endotoxic activity | protection against bacterial infections (bacterial infections): able to protect against bacterial infections | endotoxin mediated TNFα induction and lethality [1]: reduce endotoxin mediated TNFα induction and lethality

Nisin A: lantibiotic, a variant of Nisin Z (ITSISLCTPGCKTGALMGCNMKTATCHCSIHVSK; thioether (positions not given here); also: lantibiotic; UniProt P13068 24-57, looked up)
ability to induce MCP-1 ([2]; 24 hours, 100 μg of peptide, ELISA, FIG. 7): excellent activity

Nisin Z: cationic lantibiotic bacteriocin purified from L. lactis NIZO 22186 fermentation broth (ITSISLCTPGCKTGALMGCNMKTATCNCSIHVSK; thioether (positions not given here); also: lantibiotic; UniProt P29559 24-57, looked up)
synergy with known adjuvants like CpG (human PBMC): show synergy | MCP-3 release above the additive effect of CpG alone and lantibiotic alone (human PBMC; p<0.05): statistically significantly (p<0.05) increased | inducing MCP-1 and IL6, compared with CpG (human PBMC; vs three classes of CpG): superior to any of the three classes of CpG | ability to stimulate human PBMC to induce the expression of the chemokines MCP-1, Gro-α and IL8 ([2]; FIG. 2A-C): most effective; also recorded: ability to induce chemokines | dose response of chemokine induction ([2]; between 30 and 150 μg/ml, FIG. 2A-C): good dose response

Pep5: cationic lantibiotic purified from producer strain S. epidermidis 25 (TAGPAIRASVKQCQKTLKATRLFTVSCKGKNGCK; thioether (positions not given here); also: lantibiotic; UniProt P19578 27-60, looked up)
synergy with known adjuvants like CpG (human PBMC): show synergy | ability to stimulate human PBMC to induce the expression of the chemokines MCP-1, Gro-α and IL8 ([2]; FIG. 2A-C): ability to induce chemokines

gallidermin: cationic lantibiotic purified from Staphylococcus gallinarum Tü 3928 (IASKFLCTPGCAKTGSFNSYCC; thioether (positions not given here); also: lantibiotic; UniProt P21838 31-52, looked up)
synergy with known adjuvants like CpG (human PBMC): show synergy | ability to stimulate human PBMC to induce the expression of the chemokines MCP-1, Gro-α and IL8 ([2]; FIG. 2A-C): quite effective; also recorded: ability to induce chemokines

indolicidin: 13-mer peptide (ILPWKWPWWPWRR; ends and bridges not checked; UniProt P33046 131-143, looked up)
anti-endotoxic activity (suppression of LPS-stimulated TNFα by macrophages) (macrophages): rather modest anti-endotoxic activity

nisin
infection in the gut / bacterial clearance (Citrobacter rodentium; 200 μg nisin intraperitoneally 4 h before gavage with 2.5×10^8 CFU, CCD imaging, FIG. 10): substantial decrease in infection in the gut; also recorded: superior clearance | duration of the decrease in infection / superior clearance (Citrobacter rodentium; after injection of nisin, FIG. 10): up to 11 days | damage to epithelial integrity (histology score) (Citrobacter rodentium; [3]): decrease | goblet cell depletion (histology score) (Citrobacter rodentium; [3]): decrease | inflammatory exudate and edema (histology score) (Citrobacter rodentium; [3]): significant (p<0.05) increase | synergy in inducing MCP-1 over and above the individual components (human PBMC; adjuvant formulations, ratios 2:1, 1:1 and 1:2 nisin to CpG, FIG. 8): demonstrated synergy | colony counts within the peritoneum (S. aureus; after 24 hours, peptide 4 hours before ~10^8 S. aureus in hog gastric mucin, FIG. 9A): reducing average colony counts | visual observation scores (physiological consequences) (S. aureus; cf. control peptides 1002 and 1005, FIG. 9B): vastly improved
